Laboratory results reported in patent publication US20030045580A1, “Ibuprofen containing active agent preparation” (priority 2000, published 2003).

Assay: Hardness (radial breaking force) of 200 mg, 9 mm compacts from active ingredient preparation vs physical mixture
Assay type: physicochemical
Conditions: 200 mg compacts, diameter 9 mm
Method: The hardness of the round compacts means the radial breaking force.
Various compositions of the novel active ingredient preparation were compressed under various pressures using a type EKO press supplied by Korsch, Berlin, to give 200 mg compacts with a diameter of 9 mm. For comparison therewith, the physical mixtures (PM) of the same composition were compressed under analogous conditions, and the hardnesses of the produced compacts were compared. Physical mixtures mean the dry mixture of ibuprofen with the particular binder.
In contrast to the purely physical mixtures, the novel ibuprofen-containing active ingredient compositions result, even with low compressive forces, in compacts with hardnesses which are distinctly above the hardnesses of 25 N which are adequate for tablets.

CC(C)Cc1ccc(C(C)C(=O)O)cc1 (stereo not drawn) [0% (pure), 2-(4-isobutylphenyl)propionic acid]
Hardness with a compressive force of 4.7 to 5.3 kN (compressive force 4.7 to 5.3 kN): 11.0 N
Hardness with a compressive force of 9.7 to 10.9 kN (compressive force 9.7 to 10.9 kN): 10.8 N
Hardness with a compressive force of 20.1 to 21.1 kN (compressive force 20.1 to 21.1 kN): 20.1 N
